Key:
Format in all cases: in vivo
Myzus persicae = Myzus persicae (green peach aphid), mixed population, feeding/contact (sMP); conditions: sensitive strain, pepper plants, spray, mortality 5 days after treatment; 0 = BP80 >50 ppm
Method: Myzus persicae (Green Peach Aphid), Mixed Population, Feeding/Contact (sMP)
Pepper plants were infested with an Myzus persicae population of mixed ages. One day after infestation the plants were treated with the diluted test solutions in a spray chamber. 5 days after treatment samples were assessed for mortality.

Bemisia tabaci = Bemisia tabaci (cotton whitefly), adult, feeding/contact (sBT); conditions: sensitive strain, adults on cotton leaf discs, mortality 4 days after treatment; 0 = BP80 >50 ppm
Method: Bemisia tabaci (Cotton Whitefly), Adult, Feeding/Contact (sBT)
(§1) Cotton leaf discs were placed upside down in petri dishes on water agar and treated with the diluted test solutions in a spray chamber. After drying, leaf discs were infested with 10 adult Bemisia tabaci. Dishes were covered with a fabric filter and sealed with a perforated plastic lid. 4 days after treatment samples were assessed for mortality.

Resistant Bemisia tabaci = Resistant Bemisia tabaci (rBT); conditions: resistant strain biotype Q, adults on cotton leaf discs, mortality 4 days after treatment; 0 = BP80 >50 ppm
Method: as §1
Resistant Bemisia tabaci (rBT)
Biotype Q originally field-collected in 2000 from Almeria, Spain. […] The strain carried the mutation L925I in the voltage-gated sodium channel conferring resistance to pyrethroids. It also had higher expression of the p450 CYP6CM1 conferring metabolic resistance to neonicotinoids.

Resistant Myzus persicae = Resistant Myzus persicae (rMP); conditions: resistant strain, pepper plants, spray, mortality 5 days after treatment; 0 = BP80 >50 ppm

Compound: CC[S@@](=N)(=O)c1cc(C2(C#N)CC2)cnc1-c1nc2cc(C(F)(F)F)cnc2n1C [P24, (R)-1-[5-(ethyl-sulfonimidoyl)-6-[3-methyl-6-(trifluoromethyl)imidazo[4,5-b]pyridin-2-yl]-3-pyridyl]cyclo-propanebonitrile]
- pBP80 s-MP (Myzus persicae): 5.2
- pBP80 sBT (Bemisia tabaci): 5.1
- pBP80 rBT (Resistant Bemisia tabaci): 3.9
- pBP80 r-MP (Resistant Myzus persicae): 4.5

Reference: patent US20260271928A1, “CONTROL OF PESTS RESISTANT TO INSECTICIDES” (Syngenta Crop Protection Ag, priority 2023, published 2026)
